Test results taken from US20050044581A1, “Animals and cells containing a mutated alpha2/omega1 gene” (priority 2003, published 2005).

Assays:
Type in all cases: in vivo, mouse
[1] = test system: α2/δ1 R217A wild type and homozygous mice; assay: Tail Suspension Test (TST); conditions: R217A mutant vs wildtype mice; dosed 120 minutes prior; FIG. 5
Protocol: Male α2/δ1 R217A wild type and homozygous mice, weighing 22-35 grams, were used for testing. Animals were maintained on a 12 hour light/dark cycle with food and water available ad libitum. Animals were food deprived overnight the day before testing. On test day, animals were placed by groups of 8 into holding cages to acclimate for sixty minutes prior to dosing. Vehicle or pregabalin was administered 120 minutes prior to testing at a dose volume of 10 mL/kg. At test time, a piece of transparent tape was placed around the distal portion of the tail. The tape was then attached to a hook connected to an electro-mechanical apparatus that recorded the amount of time a mouse moved and the force used during movement. The hook was located at the top of a 24×18 cm testing chamber. Animals were completely suspended in air approximately 5 cm off the floor of the chamber for six minutes. Mean time of struggling and force of movement were then calculated for each group of eight.
Animals are placed by groups of eight into holding cages to acclimate for thirty to sixty minutes prior to dosing. Treatments are generally administered 60 to 120 minutes prior to testing, although this also varies with specific compounds. At test time, a piece of scotch tape is placed around the distal portion of the tail. […]

[2] = test system: R217A mutant lines and background strain mice; assay: Maximal electroshock procedure (MES)
Protocol: WT mice were tested at 0.1 mA, HET mice were tested at 0.4 mA and KI mice were tested at 0.7 InA. Each experiment included a no-shock vehicle control group for direct comparison to the concurrent vehicle punished-responding group to determine percent suppression of drinking. […] Sedation was noted by the observer as previously described. […] Electroshock in mice was delivered using corneal electrodes with varied electroshock intensity. Current was delivered (60 Hz sinusoidal current, 11 to 17 mA baseline to peak vs. 50 mA for 0.2 s) using a constant-current stimulator (Wahlquist Instruments, Salt Lake City, Utah). The intensities of current necessary to produce tonic extensor seizures for each mouse strain and mutant lines in all of the mice were determined. These currents were then used for further testing of mice with pregabalin. All dose-response testing was conducted at the previously determined time of peak drug effect. Groups of 10 mice each were give various intraperitoneal doses of pregabalin dissolved in 0.9% saline, diazepam (veh) or phenytoin and given in a volume of 10 ml/kg of body weight. […] At least four groups of mice and each animal was employed once. The animals, pretreated with different doses of the tested drugs, were challenged with one electroshock at previously determined times of peak drug effect (pregabalin: 120 min; diazepam: 60 min; phenytoin; 60 min)

[3] = test system: α2/δ1 R217A wild type, heterozygous and homozygous mice; assay: Formalin foot-pad procedure (formalin-induced hyperalgesia); conditions: PO 120 minutes prior to testing, FIG. 4
Protocol: Male α2/δ1 R217A wild type, heterozygous, and homozygous mice, weighing 19-40 grams, were used for testing. Animals were maintained on a 12 hour light/dark cycle with food and water available ad libitum. Animals were food deprived overnight the day before testing. On test day, animals were acclimated to the observation chambers for approximately 60 min. The observation chambers were eight inch square boxes consisting of solid, acrylic plastic mirrors for the floor and 3 walls. The fourth wall was clear acrylic that allowed for observation. Animals were dosed PO with either vehicle or pregabalin, 120 minutes prior to testing at a dose volume 10 ml/kg. At test time, animals received a 25 μL injection of a 5% formalin solution in water in the plantar surface of the left hind foot. […] These behaviors were timed using a hand-held stopwatch and recorded at 5 min intervals. Data was analyzed by the two distinct phases of responding. Early phase responding included Minutes 0-10, and late phase responding included Minutes 11-45. The total time spent licking by drug-treated animals in each phase was compared to the total time spent licking by vehicle-treated animals.

CC(C)C[C@H](CN)CC(=O)O [pregabalin]
effect in Tail Suspension Test [1]: exerts its sedative and/or anxiolytic effect in TST through the α2/δ1 polypeptide
potency in protecting against seizures ([2]; mutant mice vs wild-type, heterozygous or back-ground strains): less potent
anticonvulsant effects ([2]; −/− mice as compared to +/+ mice, FIG. 9): reduced
sensitivity to effects in MES ([2]; −/− mice vs +/+ mice, FIG. 9): less sensitive
efficacy on formalin-induced hyperalgesia [3]: reduced efficacy
